The values below are quoted from earlier work in US7060295B2, “Formulations for the prevention and treatment of insulin resistance and type 2 diabetes mellitus” (ChronoRX LLC, priority 2000, dated 2006).

For data set [1] the following is noted: in vivo.
Data set [2] relates to pancreatic islets. As to conditions: islets simultaneously exposed to IL-1 beta.
The conditions of data set [3]: in vivo. This is another data set of the same source.
The conditions of data set [4]: 1 year, 457 non-diabetic patients with android (abdominal) obesity.
The conditions of data set [5]: in vivo. This is another data set of the same source.
Test in data set [6]: not given
This is another data set of the same source.

For data set [7] the following is noted: 600 mg/day, used alone, obese type 2 diabetes patients.
For data set [8], the system named is insulin secreting β-cells.
The test system of data set [9] is perfused rat hearts.
Data set [10] addresses sulfonylurea receptor (Homo sapiens, UniProt Q09428). As to conditions: β-cell membrane receptors.
The conditions of data set [11]: supplementation.
The conditions of data set [12]: oral 60 mg twice daily for 8 weeks.
Test in data set [13]: not given
This is another data set of the same source.

Chain of sulfonylurea receptor (Q09428 whole entry): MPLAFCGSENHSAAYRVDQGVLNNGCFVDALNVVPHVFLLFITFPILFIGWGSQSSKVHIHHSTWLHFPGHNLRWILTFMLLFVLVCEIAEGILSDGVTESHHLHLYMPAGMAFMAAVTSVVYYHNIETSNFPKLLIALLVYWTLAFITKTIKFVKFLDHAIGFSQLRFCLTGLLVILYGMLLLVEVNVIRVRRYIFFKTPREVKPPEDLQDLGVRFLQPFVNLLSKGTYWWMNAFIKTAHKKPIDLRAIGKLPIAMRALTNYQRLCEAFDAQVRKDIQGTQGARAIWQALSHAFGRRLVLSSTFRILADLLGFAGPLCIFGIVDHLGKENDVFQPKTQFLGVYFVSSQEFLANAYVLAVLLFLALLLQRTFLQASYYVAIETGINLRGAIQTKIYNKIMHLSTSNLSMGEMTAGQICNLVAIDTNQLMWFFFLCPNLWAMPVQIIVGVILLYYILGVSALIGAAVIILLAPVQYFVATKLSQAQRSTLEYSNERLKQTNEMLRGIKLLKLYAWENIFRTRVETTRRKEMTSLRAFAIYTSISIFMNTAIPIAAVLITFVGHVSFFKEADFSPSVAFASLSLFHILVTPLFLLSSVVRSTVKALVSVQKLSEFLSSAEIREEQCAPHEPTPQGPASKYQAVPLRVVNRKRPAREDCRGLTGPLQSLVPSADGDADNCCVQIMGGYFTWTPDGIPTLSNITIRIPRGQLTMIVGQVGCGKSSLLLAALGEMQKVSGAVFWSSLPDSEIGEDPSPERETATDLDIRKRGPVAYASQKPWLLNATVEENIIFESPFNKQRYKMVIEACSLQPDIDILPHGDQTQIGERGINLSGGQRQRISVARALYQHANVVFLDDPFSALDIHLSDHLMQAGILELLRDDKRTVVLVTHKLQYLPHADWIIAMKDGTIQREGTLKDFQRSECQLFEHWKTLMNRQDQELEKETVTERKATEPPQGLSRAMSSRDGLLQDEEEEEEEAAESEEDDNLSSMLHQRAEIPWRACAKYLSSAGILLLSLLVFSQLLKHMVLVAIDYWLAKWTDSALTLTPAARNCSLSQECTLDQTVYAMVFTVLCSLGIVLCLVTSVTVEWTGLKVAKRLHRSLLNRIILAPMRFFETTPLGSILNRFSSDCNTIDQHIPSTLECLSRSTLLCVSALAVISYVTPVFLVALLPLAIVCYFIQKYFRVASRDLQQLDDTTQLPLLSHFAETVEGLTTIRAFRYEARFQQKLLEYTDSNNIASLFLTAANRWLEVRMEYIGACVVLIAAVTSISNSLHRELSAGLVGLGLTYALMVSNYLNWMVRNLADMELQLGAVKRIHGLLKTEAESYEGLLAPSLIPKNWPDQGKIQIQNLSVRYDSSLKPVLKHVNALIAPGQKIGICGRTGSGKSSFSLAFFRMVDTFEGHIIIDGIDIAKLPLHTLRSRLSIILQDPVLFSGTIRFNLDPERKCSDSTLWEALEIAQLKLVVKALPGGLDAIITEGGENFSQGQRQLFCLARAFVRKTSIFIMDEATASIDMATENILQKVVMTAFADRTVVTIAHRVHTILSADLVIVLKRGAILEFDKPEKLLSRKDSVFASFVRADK
Chain of sulfonylurea receptor (Q14654 whole entry partner): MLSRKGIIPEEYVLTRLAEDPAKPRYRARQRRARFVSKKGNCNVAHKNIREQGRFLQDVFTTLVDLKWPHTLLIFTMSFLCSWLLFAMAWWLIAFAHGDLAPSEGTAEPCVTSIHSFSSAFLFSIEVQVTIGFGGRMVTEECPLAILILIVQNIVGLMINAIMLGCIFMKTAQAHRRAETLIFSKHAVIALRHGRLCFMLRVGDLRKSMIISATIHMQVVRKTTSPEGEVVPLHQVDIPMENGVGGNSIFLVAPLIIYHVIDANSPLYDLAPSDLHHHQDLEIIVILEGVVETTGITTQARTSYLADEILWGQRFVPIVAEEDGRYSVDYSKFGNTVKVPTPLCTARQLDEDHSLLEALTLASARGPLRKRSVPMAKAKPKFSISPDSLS

As to `CCCNC(=O)NS(=O)(=O)c1ccc(Cl)cc1` [Chlorpropamide], the “Duration of Action” value in [1] was 60 h.
`NC(=O)c1cccnc1` [nicotinamide]: in data set [2], the “concentration of maximum effect on recovery of glucose-induced insulin secretion” value is recorded as 25 mmol/L.
`CN(C)C(=N)N=C(N)N` [Metformin, metformin]: for the setting “monotherapy”, the “decrease of low-density lipoprotein (LDL) cholesterol levels” value is 10% to 15% and the “decrease of plasma triglyceride levels” value is given as 10% to 15%. Also, under “patients with type 2 diabetes, first 6 months of treatment”, the weight loss is listed as 2 to 3 kg. Besides, the “gastrointestinal side effects (diarrhea, nausea, abdominal pain, metallic taste)” value in data set [3] is reported as 20% to 30%. Besides, the weight change entry in [4] is given as “significant weight loss”. Further, in data set [5], the “lactic acidosis, reported frequency” value is 3 cases per 100,000 patient-years and the “lactic acidosis, reported incidence” value is 0.03 /1,000 patient-years exposure.
As to `O=S(=O)([O-])[O-].[O]=[V+2]` [vanadyl sulfate], in data set [6] (100 mg/day for 3 weeks), the “duration of effects after discontinuation” value is recorded as “up to 2 weeks”. Also, the “hepatic and peripheral insulin sensitivity” value in data set [6] (100 mg/day, after 3 weeks) is “appear to improve”.
On to vitamin E, for which the insulin efficiency entry in data set [7] was “further worsen insulin efficiency”.
Regarding `O=C1O[C@H]([C@@H](O)CO)C(O)=C1O` [ascorbate, ascorbic acid], in data set [8], the “decrease of cellular insulin glycation” value is 66–80%.
`COc1ccc(Cl)cc1C(=O)NCCc1ccc(S(=O)(=O)NC(=O)NC2CCCCC2)cc1` [Glyburide]: in data set [9], the “glycolytic flux and lactate production” value is listed as “dramatic increase”.
`CC(=O)c1ccc(S(=O)(=O)NC(=O)NC2CCCCC2)cc1` [Acetohexamide]: the “Duration of Action” value in [1] was 12 to 18 h.
Regarding `Cc1cnc(C(=O)NCCc2ccc(S(=O)(=O)NC(=O)NC3CCCCC3)cc2)cn1` [Glipizide (XL), Glipizide], the “Duration of Action” value in data set [1] is 24 h.
In the case of `Cc1cnc(C(=O)NCCc2ccc(S(=O)(=O)NC(=O)NC3CCCCC3)cc2)cn1` [Glipizide], the “Duration of Action” value in data set [1] was 12 to 24 h. Besides, the “concentration range that saturates sulfonylurea receptors” value in data set [10] is “low nM”.
As for `[Cr]` [Cr, Chromium], the “reduction of metformin requirements” value in data set [11] is given as “more than one-half”.
For `COC1=C(OC)C(=O)C(C/C=C(\C)CC/C=C(\C)CC/C=C(\C)CC/C=C(\C)CC/C=C(\C)CC/C=C(\C)CC/C=C(\C)CC/C=C(\C)CC/C=C(\C)CCC=C(C)C)=C(C)C1=O` [coenzyme Q10, Ubiquinone], in [12], the HDL-cholesterol entry is on record as “increased”; the “systolic and diastolic blood pressure, fasting and 2-h plasma insulin, glucose, triglycerides, lipid peroxides, malondialdehyde and diene conjugates” value is reported as “all reduced”.
`CCC1=C(C)CN(C(=O)NCCc2ccc(S(=O)(=O)NC(=O)N[C@H]3CC[C@H](C)CC3)cc2)C1=O` [Glimepiride]: in [1], the “Duration of Action” value is 16 to 24 h.
With `CCCCNC(=O)NS(=O)(=O)c1ccc(C)cc1` [Tolbutamide], the “Duration of Action” value in [1] is 6 to 12 h.
In the case of `C[N+](C)(C)CC(O)CC(=O)[O-]` (stereo not drawn) [carnitine, beta-hydroxy-gamma-N-trimethylaminobutyric acid], the “amount absorbed from the intestine” value in data set [13] (oral) is 15 to 87 % of ingested carnitine. Further, the “tissue concentrations relative to plasma” value in [13] (skeletal and cardiac muscle, active transport) was 20- to 50 fold.
